Patent US20230399341A1, “7-PHENYL SUBSTITUTED 2-AMINOQUINAZOLINE INHIBITORS OF HPK1” (MERCK SHARP & DOHME LLC, priority 2020, published 2023)

Biological target: T1, Human HPK1, catalytic domain (Homo sapiens, UniProt Q92918)
T1 sequence (Q92918 1-346): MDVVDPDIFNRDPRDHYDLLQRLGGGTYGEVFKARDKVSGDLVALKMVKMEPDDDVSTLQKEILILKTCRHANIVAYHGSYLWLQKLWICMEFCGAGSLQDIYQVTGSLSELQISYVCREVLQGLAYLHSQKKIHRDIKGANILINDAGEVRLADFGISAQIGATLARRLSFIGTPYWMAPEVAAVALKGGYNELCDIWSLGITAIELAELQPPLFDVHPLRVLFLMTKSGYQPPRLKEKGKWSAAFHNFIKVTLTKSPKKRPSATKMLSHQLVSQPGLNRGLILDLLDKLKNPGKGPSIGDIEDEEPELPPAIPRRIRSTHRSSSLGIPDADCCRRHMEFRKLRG
Assay: HPK1-SLP76 TR-FRET Assay
Format: biochemical
Conditions: 75 pM HPK1, ATP 10 uM, SLP76 10 nM, 30 min pre-incubation, 60 min reaction

IC50 [µM] | SMILES
0.0152 | COc1cc2c(cc1Nc1ncc3ccc(OCc4ccc(N5CCNCC5)nc4)cc3n1)CN(C)CC2 [Compound 4-1, N-(6-methoxy-2-methyl-1,2,3,4-tetrahydroisoquin-olin-7-yl)-7-{[6-(piperazin-1-yl)pyridin-3-yl]methoxy}-quinazolin-2-amine]
0.00467 | COc1cc2c(cc1Nc1ncc3ccc(OCc4ccc5c(c4)CNC5)cc3n1)CN(C)CC2 [Compound 4-2, 7-[(2,3-dihydro-1H-iso-indol-5-yl)methoxy]-N-(6-methoxy-2-methyl-1,2,3,4-tetrahydroisoquinolin-7-yl)-quinazolin-2-amine]
0.377 | COc1cc2c(cc1Nc1ncc3ccc(OCC4CCNCC4)cc3n1)CN(C)CC2 [Compound 4-3, N-(6-methoxy-2-methyl-1,2,3,4-tetrahydroisoquin-olin-7-yl)-7-[(piperidin-4-yl)methoxy]quinazolin-2-amine]
0.158 | COc1cc2c(cc1Nc1ncc3ccc(OCC4CCN(c5cncc(C)n5)CC4)cc3n1)CN(C)CC2 [Compound 4-4, N-(6-methoxy-2-methyl-1,2,3,4-tetrahydroisoquin-olin-7-yl)-7-{[1-(6-methyl-pyrazin-2-yl)piperidin-4-yl]methoxy}quinazolin-2-amine]
0.258 | COc1cc2c(cc1Nc1ncc3ccc(Oc4cn[nH]c4)cc3n1)CN(C)CC2 [Compound 4-5, N-(6-methoxy-2-methyl-1,2,3,4-tetrahydroisoquin-olin-7-yl)-7-[(1H-pyrazol-4-yl)oxy]quinazolin-2-amine]
0.583 | COc1cc2c(cc1Nc1ncc3ccc(Oc4ccc(C(=O)N5CCN(C)CC5)cc4)cc3n1)CN(C)CC2 [Compound 4-6, [4-({2-[(6-methoxy-2-methyl-1,2,3,4-tetrahydro-isoquinolin-7-yl)amino]-quinazolin-7-yl}oxy)phen-yl](4-methylpiperazin-1-yl)methanone]
0.224 | COc1cc2c(cc1Nc1ncc3ccc(Oc4ccc(N5CCN(C(C)=O)CC5)cc4)cc3n1)CN(C)CC2 [Compound 4-7, 1-{4-[4-({2-[(6-methoxy-2-methyl-1,2,3,4-tetrahydro-isoquinolin-7-yl)amino]-quinazolin-7-yl}oxy)phen-yl]piperazin-1-yl}ethan-1-one]
0.00237 | COc1cc2c(cc1Nc1ncc3ccc(Oc4ccc([C@H](C)N)cc4)cc3n1)CN(C)CC2 [Compound 4-8, 7-{4-[(1S)-1-aminoethyl]-phenoxy}-N-(6-methoxy-2-methyl-1,2,3,4-tetrahydro-isoquinolin-7-yl)quinazolin-2-amine]
0.00219 | COc1cc2c(cc1Nc1ncc3c(N)cc(Oc4ccc5c(c4)CCNC5)cc3n1)CN(C)CC2 [Compound 4-9, N2-(6-Methoxy-2-methyl-1,2,3,4-tetrahydroisoquinolin-7-yl)-7-((1,2,3,4-tetrahydroisoquinolin-6-yl)oxy)quinazoline-2,5-diamine]
0.662 | COc1cc2c(cc1Nc1ncc3ccc([C@H]4CC[C@H](N)CC4)cc3n1)CN(C)CC2 [Compound 5-1, 7-((1r,4r)-4-aminocyclohexyl)-N-(6-methoxy-2-methyl-1,2,3,4-tetrahydroisoquinolin-7-yl)quinazolin-2-amine]
0.165 | COc1cc2c(cc1Nc1ncc3ccc([C@H]4CC[C@H](CN)CC4)cc3n1)CN(C)CC2 [Compound 5-2, 7-((1r,4r)-4-(aminomethyl)-cyclohexyl)-N-(6-methoxy-2-methyl-1,2,3,4-tetrahydroiso-quinolin-7-yl)quinazolin-2-amine]
